Data taken from ChEMBL document CHEMBL1201862, “PubChem BioAssay data set” (2004).
Active and inactive are the calls of the source.

Tests used:
Protein skinhead-1 = molecular target: T1, Protein skinhead-1 (Caenorhabditis elegans, UniProt P34707); assay type: functional
T1 sequence (P34707 whole entry): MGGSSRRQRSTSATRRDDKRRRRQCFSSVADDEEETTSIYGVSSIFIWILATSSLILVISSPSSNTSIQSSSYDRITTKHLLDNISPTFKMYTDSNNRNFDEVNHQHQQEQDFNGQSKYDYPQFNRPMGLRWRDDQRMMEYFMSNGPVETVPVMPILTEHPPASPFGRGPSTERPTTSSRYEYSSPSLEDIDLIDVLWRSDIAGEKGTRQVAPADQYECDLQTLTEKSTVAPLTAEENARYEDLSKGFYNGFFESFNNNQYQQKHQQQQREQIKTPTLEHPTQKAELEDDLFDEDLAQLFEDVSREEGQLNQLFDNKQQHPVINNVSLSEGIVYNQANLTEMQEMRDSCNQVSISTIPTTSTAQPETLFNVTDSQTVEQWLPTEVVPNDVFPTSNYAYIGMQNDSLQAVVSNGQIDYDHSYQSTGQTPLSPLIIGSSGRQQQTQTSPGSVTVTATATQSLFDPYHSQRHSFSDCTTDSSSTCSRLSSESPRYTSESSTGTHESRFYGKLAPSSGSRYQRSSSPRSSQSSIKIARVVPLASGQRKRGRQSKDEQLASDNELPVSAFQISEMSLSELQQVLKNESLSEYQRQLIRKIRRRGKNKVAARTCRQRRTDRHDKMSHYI

[1] = molecular target: T2, Eukaryotic translation initiation factor 2-alpha kinase 3 (Homo sapiens, UniProt Q9NZJ5); test: Dose response cell-based high-throughput screening assay to measure PERK inhibition. [Related pubchem assays: 1416 ]; assay type: functional
T2 sequence (Q9NZJ5 whole entry): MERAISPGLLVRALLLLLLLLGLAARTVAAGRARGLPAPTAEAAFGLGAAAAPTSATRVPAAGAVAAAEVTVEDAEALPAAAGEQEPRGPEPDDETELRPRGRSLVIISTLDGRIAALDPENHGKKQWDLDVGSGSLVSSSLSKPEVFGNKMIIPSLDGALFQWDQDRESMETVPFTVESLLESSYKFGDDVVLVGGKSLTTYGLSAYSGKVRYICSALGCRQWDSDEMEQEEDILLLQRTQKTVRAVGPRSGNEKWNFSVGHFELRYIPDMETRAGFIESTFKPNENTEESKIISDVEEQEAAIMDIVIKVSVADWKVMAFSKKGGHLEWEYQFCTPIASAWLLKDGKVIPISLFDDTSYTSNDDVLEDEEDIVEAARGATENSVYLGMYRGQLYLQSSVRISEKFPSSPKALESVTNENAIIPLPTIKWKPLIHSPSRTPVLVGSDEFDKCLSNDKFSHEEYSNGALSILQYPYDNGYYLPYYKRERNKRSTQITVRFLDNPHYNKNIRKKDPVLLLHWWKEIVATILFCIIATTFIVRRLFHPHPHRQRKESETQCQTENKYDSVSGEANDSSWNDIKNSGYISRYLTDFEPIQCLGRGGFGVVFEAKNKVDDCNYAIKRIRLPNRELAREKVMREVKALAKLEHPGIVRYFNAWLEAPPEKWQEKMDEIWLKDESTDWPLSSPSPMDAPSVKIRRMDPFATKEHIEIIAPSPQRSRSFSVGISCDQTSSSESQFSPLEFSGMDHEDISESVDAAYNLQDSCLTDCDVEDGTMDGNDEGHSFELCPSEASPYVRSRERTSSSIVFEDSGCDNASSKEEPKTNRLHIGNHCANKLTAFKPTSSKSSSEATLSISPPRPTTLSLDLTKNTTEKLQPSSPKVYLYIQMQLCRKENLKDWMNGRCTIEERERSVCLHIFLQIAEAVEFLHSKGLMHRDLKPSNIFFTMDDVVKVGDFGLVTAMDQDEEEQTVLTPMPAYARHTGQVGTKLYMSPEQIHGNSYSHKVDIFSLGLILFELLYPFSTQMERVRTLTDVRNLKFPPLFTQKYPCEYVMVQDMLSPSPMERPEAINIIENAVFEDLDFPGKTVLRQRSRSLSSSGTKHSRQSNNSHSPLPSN

[2] = molecular target: T2, Eukaryotic translation initiation factor 2-alpha kinase 3; test: Counterscreen assay for PERK inhibitors: Dose response cell-based high throughput screening assay to measure inhibition of PERK at 6 hours. [Related pubchem assays: 1522, 1416 ]; assay type: functional
Protein RecA = molecular target: T3, Protein RecA (Mycobacterium tuberculosis, UniProt P9WHJ3); test: Fluorescence Cell-Free Homogeneous Dose Retest to Identify Inhibitors of RecA-Intein Splicing Activity. [Related pubchem assays (depositor defined):AID2097, AID2223, AID489010, AID492950]; assay type: functional
T3 sequence (P9WHJ3 whole entry): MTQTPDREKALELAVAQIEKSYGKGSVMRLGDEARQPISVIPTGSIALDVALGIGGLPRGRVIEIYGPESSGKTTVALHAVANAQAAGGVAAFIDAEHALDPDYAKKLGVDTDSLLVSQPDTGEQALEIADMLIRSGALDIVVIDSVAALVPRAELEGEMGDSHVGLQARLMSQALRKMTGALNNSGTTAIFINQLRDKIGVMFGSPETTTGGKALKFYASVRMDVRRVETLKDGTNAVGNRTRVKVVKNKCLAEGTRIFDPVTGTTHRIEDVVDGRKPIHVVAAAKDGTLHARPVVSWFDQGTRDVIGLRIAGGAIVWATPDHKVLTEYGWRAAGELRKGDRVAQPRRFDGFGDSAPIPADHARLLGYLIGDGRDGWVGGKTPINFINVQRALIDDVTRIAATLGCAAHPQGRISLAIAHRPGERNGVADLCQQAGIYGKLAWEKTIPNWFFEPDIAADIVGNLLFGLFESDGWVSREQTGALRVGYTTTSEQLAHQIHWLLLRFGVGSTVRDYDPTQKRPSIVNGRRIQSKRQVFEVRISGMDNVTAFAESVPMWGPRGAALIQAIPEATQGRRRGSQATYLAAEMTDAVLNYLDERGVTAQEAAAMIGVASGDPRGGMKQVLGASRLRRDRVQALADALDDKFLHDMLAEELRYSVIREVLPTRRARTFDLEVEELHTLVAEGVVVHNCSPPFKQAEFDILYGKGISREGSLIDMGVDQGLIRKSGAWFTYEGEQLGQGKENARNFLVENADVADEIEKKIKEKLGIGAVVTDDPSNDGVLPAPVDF

X-box-binding protein 1 = X-box-binding protein 1 (Homo sapiens, UniProt P17861); assay type: functional, Cricetulus griseus;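 note: confirmatory dose-response counter-screen serving a CHOP assay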
[3] = molecular target: T4, Replicative DNA helicase DnaB (Mycobacterium tuberculosis, UniProt P9WMR3); test: DnaB intein splicing inhibitors, dose response, biochemical, cell-free fluorescence (AID 449749); assay type: functional
T4 sequence (P9WMR3 whole entry): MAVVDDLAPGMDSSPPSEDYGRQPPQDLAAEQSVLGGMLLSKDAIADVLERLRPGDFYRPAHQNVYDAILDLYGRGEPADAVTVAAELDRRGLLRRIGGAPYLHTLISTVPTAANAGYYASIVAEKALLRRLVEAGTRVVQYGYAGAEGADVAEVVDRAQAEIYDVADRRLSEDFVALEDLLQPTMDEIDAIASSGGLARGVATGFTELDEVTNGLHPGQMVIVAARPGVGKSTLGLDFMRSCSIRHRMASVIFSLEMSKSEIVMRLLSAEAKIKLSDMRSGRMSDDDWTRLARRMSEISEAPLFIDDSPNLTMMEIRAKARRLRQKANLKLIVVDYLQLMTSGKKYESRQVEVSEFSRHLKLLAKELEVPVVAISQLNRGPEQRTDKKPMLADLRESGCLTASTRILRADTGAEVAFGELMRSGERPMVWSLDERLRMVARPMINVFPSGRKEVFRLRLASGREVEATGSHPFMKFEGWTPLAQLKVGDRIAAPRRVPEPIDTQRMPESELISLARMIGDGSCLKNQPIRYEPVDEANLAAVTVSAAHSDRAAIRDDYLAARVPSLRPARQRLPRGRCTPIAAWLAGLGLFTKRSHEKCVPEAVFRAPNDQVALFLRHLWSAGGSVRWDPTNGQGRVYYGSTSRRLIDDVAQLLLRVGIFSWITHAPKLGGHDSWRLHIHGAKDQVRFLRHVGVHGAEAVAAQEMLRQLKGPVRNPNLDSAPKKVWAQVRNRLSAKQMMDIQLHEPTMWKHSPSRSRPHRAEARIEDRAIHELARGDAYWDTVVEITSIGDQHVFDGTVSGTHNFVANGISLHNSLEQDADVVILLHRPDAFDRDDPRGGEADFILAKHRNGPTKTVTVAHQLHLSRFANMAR

[4] = molecular target: Lysosomal acid glucosylceramidase (Homo sapiens, UniProt P04062); test: Dose response cell-based high throughput screening assay to identify enhancers of beta-glucosidase activity. [Related pubchem assays: 784 ]; assay type: functional
INS1 = test: INS-1E survival protection against cytokine death – cell-based, luminescence, retest, dose response (AID 449756); assay type: functional; conditions: Rattus norvegicus, INS1;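 note: cell death triggered by IL-1 beta plus TNF-alpha plus IFN-gamma mixture; protective hits raise ATP signal compared with cytokine alone wells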
[5] = Cytotoxicity screening for potential Inhibitors of Bacterial Capsule Biogenesis. [Related pubchem assays (depositor defined):AID488970]; assay type: functional
[6] = molecular target: T5, Endoribonuclease toxin MazF (Escherichia coli K-12, UniProt P0AE70); test: substrate-only fluorescence increase artefacts – biochemical, single-stranded RNase substrate, counter-screen for MazEF activator project, dose response (AID 588502); assay type: functional
T5 sequence (P0AE70 whole entry): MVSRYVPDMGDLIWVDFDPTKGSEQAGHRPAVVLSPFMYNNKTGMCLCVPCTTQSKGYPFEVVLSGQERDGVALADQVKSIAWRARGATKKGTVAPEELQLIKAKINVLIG

[7] = molecular target: T5, Endoribonuclease toxin MazF; test: activation of MazEF endoribonuclease cleavage – biochemical, fluorescence, single-stranded RNA substrate, uHTS hits, dose response (AID 588481); assay type: functional
HeLa = test: viability loss in HeLa cells – cell-based, 24 h, cherry-picked samples, cytotoxicity control, dose response (AID 504726); assay type: functional; conditions: Homo sapiens;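 note: potency for cytotoxicity as loss of luminescence signal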
ORF 73 = molecular target: T6, ORF 73 (Human herpesvirus 8, UniProt O40947); test: KSHV LANA DNA-binding disruption – biochemical, fluorescence polarization, cherry-picked samples, dose response (AID 504725); design: species or system Human gammaherpesvirus 8;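 note: fluorescence polarization of a labeled DNA duplex reporting LANA DNA binding; potency is for inhibitors that block LANA binding to the DNA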
T6 sequence (O40947 whole entry): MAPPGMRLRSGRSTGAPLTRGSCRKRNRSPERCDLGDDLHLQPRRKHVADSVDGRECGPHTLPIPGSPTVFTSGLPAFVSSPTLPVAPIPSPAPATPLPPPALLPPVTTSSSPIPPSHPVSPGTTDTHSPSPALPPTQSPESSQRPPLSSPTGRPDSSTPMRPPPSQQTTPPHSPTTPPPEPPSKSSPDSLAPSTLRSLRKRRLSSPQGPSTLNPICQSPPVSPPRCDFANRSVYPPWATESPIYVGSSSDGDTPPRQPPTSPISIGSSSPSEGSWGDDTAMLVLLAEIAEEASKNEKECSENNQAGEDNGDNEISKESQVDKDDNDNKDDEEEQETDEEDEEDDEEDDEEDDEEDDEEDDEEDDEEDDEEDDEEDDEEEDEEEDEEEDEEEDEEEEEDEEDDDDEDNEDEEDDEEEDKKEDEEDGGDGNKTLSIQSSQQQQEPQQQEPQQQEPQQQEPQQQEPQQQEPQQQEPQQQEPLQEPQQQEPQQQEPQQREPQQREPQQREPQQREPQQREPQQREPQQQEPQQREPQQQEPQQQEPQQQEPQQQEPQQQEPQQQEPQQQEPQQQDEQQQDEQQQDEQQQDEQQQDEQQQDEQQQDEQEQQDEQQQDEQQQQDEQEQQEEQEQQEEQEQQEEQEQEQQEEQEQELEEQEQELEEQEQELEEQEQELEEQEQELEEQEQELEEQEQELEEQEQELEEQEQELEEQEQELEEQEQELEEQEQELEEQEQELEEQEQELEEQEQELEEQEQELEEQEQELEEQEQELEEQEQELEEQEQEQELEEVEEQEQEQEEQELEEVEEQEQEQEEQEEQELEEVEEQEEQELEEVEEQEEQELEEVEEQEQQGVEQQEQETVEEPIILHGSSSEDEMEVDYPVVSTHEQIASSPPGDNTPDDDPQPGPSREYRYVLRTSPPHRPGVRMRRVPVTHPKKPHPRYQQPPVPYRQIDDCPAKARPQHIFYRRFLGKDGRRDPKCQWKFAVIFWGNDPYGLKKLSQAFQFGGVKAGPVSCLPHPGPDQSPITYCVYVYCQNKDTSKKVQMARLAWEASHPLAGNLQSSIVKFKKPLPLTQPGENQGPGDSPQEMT

Salmon testes DNA = test: acridine orange-DNA binding displacement – biochemical, fluorescence polarization, cherry-picked samples, set 2, artefact control for KSHV LANA DNA-binding inhibitor project, dose response (AID 504727); design: species or system Salmonidae

Chain of Lysosomal acid glucosylceramidase (P04062 whole entry): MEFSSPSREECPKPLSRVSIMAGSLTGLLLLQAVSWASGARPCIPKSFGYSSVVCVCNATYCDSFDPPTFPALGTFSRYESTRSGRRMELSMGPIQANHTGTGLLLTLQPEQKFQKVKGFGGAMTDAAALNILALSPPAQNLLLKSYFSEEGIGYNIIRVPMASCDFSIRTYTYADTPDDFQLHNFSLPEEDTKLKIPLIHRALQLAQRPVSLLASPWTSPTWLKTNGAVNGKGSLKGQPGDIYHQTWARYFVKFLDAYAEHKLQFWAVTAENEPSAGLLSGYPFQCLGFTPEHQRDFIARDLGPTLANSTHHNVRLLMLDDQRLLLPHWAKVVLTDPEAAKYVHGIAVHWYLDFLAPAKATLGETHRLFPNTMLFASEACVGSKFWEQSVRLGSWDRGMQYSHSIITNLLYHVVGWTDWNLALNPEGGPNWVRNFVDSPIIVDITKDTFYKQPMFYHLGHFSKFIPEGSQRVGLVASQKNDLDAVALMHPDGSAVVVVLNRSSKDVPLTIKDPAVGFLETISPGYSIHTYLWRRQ
Chain of X-box-binding protein 1 (P17861 whole entry): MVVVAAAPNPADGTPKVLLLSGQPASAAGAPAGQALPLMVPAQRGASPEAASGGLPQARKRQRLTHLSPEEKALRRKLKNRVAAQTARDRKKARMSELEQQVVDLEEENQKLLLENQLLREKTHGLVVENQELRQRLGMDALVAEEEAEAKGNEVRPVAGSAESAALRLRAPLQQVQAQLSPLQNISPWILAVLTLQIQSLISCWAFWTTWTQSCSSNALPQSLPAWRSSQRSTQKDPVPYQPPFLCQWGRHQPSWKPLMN

CCOc1cc(C(N)=O)cc(Br)c1OC
IC50 (Protein skinhead-1): > 100 µM (inactive)
EC50 [1]: > 55.7 µM (not active)
EC50 [2]: > 55.7 µM (not active)

CC1(C)CC(C(CCN(Cc2ccccc2)C(=O)c2ccco2)c2ccc(F)cc2)CCO1 (centres undefined)
EC50 (Protein RecA): 20.9 µM (active)
Absolute IC50 (XBP1) (X-box-binding protein 1): 10 µM
AC50 [3]: 6.07 µM (active)

CC(=O)N1C(C(=O)O)CSC1c1cccc(C)c1 (centres undefined)
EC50 [4]: > 50 µM (not active)

O=C(N/N=C/c1ccc(O)cc1O)c1ccc(NC(=O)C2CCCCC2)cc1
AC50 (INS1): 4.01 µM (active)
CC50 [5]: 8.95 µM (active)

COc1ccc2c(c1)c1nc3ccccc3nc1n2CC(=O)OC(C)C
EC50 [6]: 19.6 µM (active)
EC50 [7]: > 99 µM (inactive)
AC50 (HeLa): 216 µM (active)
AC50 (ORF 73): 77 µM (active)
AC50 (Salmon testes DNA): 134 µM (active)
